Test results as given in US20170216360A1, “METHODS AND COMPOSITIONS FOR IMPROVING HOMING OF CELLS INCLUDING MESENCHYMAL STEM CELLS” (SANOFI, priority 2014, published 2017).
“Also recorded” adds a separate entry of the source. Where a name gives a salt, the structure may show the parent alone. Read-outs that look alike come from different tables or passages of the source.

What was measured:
[1] = system: CD11a surface expression on huMSCs; assay: Medium throughput screen: CD11a surface expression on MSCs, PE-CY5 anti-CD11a antibody, laser-scanning fluorescence microplate cytometer; format: cell-based, human; set-up: key to Cell surface ligand CD11a (induction of expression): NA = negative activity result; A = positive activity result; details: pretreatment of huMSCs; for EC50: read-out: Cell Surface Marker ED 50 (M) Molar Concentration of Compound for CD11a Expression
Protocol: An in vitro screen was performed for compounds that induce surface expression on huMSCs of the marker CD11a (LFA-1). This screen may be considered a medium throughput screen. Certain compounds that induce the increase of this surface marker were then selected for testing in an in vitro firm adhesion assay and/or in vivo systemic administration in an animal model of inflammation. The surface expression screen involved fluorophore-conjugated antibodies to the respective markers. Following pretreatment with the test compounds, samples of cells were incubated with the labeled antibodies for detection of surface marker expression and change relative to a reference level of untreated cells or negative control samples or values. Cells were pretreated with a concentration (3 μM) of each small molecule compound for 24 hours, followed by incubation with a fluorophore-conjugated anti-marker antibody to detect expression on MSC surface. Surface expression levels of marker ligands were then evaluated by laser-scanning fluorescence microplate cytometer. […] Cell viability in response to compounds was also tested to assess whether molecules have toxicity after 24 hours of pretreatment. Testing was performed on two different huMSC sources representing cells from different donors.
Further details of the screening approach are provided as follows. A unique single batch of bone marrow-derived MSC cells was prepared for the entire screening campaign by cell amplification using CellStack flasks and freezing in separate vials at passage P5. […] For each run, vials were thawed and cells directly seeded on 384-well plates at 3,000 cells per well in MSCGM medium. Following an overnight incubation, cells were treated with the indicated concentrations of compounds for 24 hours. Cells were washed in PBS, 3% BSA and incubated for one hour with PE-CY5-conjugated anti-CD11a monoclonal antibody (clone HI111). Expression of CD11a at the cell surface was detected using the Acumen Explorer, a laser-scanning fluorescence microplate cytometer after two PBS washings. HL-60 cells seeded at 10,000 cells per well and treated with 100 nM phorbol 12-myristate 13-acetate (PMA) for 24 h to induce cell adhesion were used as a positive control in each 384-well plate. Positive compounds were counter-screened for their auto-fluorescence by measuring the signal in the absence of antibody.
A single batch of bone marrow-derived MSC was prepared for the entire screening campaign by cell amplification using CellStack flasks and freezing in separate vials at passage P5. […] For each run, vials were thawed and cells directly seeded on 384-well plates at 3,000 cells per well in MSCGM medium. Following an overnight incubation, cells were pretreated with a low (0.1 μM) and high (3 μM) concentration of the compounds for 24 h. 9,000 cpds were tested in 112 assay plates, each 384-well plate contained 320 cpds (from column 5 to 24), one column for Max (Column2, HL60 cells) and one column for Min (Column4, MSC cells). Cells were washed in PBS, 3% BSA and incubated for one hour with PE-CY5-conjugated anti-CD11a monoclonal Ab (BD Biosciences). Expression of CD11a at the cell surface was detected after two PBS washes using the Acumen Explorer equipment, a laser-scanning fluorescence microplate cytometer. HL-60 cells (seeded at 10,000 cells per well and treated with 100 nM phorbol 12-myristate 13-acetate (PMA) for 24 h to induce cell adhesion) were used as a positive control in each 384-well plate. Positive compounds were counter-screened for their auto-fluorescence by measuring the signal in the absence of Ab. Shown in FIG. 4 is the global screening data. Using the Max, Min columns, we have calculated Max/Min ratio generated with CD11a Ab for each assay plate (signal/background ration in green columns was calculated for each of the 112 assay plates). […]

[2] = system: human mesenchymal stem cells; assay: In vitro functional firm adhesion assay of cells (Table 3, coating not stated); format: cell-based; set-up: key to Result, in vitro Firm Adhesion: NA = negative activity result; A = positive activity result; details: for Result, in vitro Firm Adhesion: pretreated huMSCs; for Firm adhesion, Percent increase: relative to untreated and/or negative control MSCs
Protocol: (§1) Cell adhesion experiments were performed using Bioflux1000 (FluxionBio), allowing accurate control over shear flow. A special 48-well plate was used, in which a microfluidic channel (350 μm×70 μm) connects each pair of adjacent wells (termed inlet and outlet wells). The plate was placed under vacuum and the channels were coated from the inlet with recombinant human E-selectin (5 μg/mL) or ICAM-1 (5 μg/mL) and incubated at 37° C. for 1 h. Prior to introducing the cells into the channel, a wash with PBS−/− from the outlet well was performed for 5 min. Compound-pretreated MSCs were introduced into the channel, followed by attachment period of 2 minutes (no flow applied during the attachment period). Attached cells were then subjected to increasing shear flow, ranging from 0.25 dynes/cm^2 for up to 10 dynes/cm^2. Images were acquired using the Montage software and cell adhesion to the coated channels following subjection to shear flow was examined. See also disclosure elsewhere herein.
1. Obtain preferred channel coating (protein/cell monolayer). 2. Prepare cell suspension (same concentrations detailed above for different cell types). 3. Add 50 μl of cell suspension to outlet well. 4. Introduce cells into channel by applying shear force of 2 dynes/cm^2 (cells should be observed within 10-15 sec flowing from outlet to inlet). 5. Once cells are observed in the channel, stop the flow and allow the introduced cells to sit for different time periods ranging from 30 seconds to 5 minutes. 6. Following this settling period, apply shear force starting from 0.5 dynes/cm^2 up to 10 dynes/cm^2 and acquire videos using stream acquisition. 7. Cell quantification is then performed using the Montage software—percentage of cells adhered, rolled or washed away after applying shear flow should be quantified.

[3] = system: LPS-induced inflamed mouse ear; assay: In vivo MSC homing to LPS-induced inflamed ear after systemic infusion, intravital microscopy; set-up: key to In vivo functional assay (homing): NA = negative activity result; A = positive activity result; details: for Increase of MSC homing to inflamed ear (%): relative to untreated cells
Protocol: C57BL/6 mice (Charles River Laboratories, Wilmington, Mass.) were anesthetized with ketamine/xylazine and their ears shaved 24 h prior to cell infusion. To induce an inflammatory response, 30 μg of E. coli lipopolysaccharide (LPS, Sigma, St. Louis, Mo.) in 50 μL saline was injected into the pinna of the left ear, with 50 μL 0.9% saline injected into the right ear as a control. For in vivo dye sensitivity validation, 1×10e6 cells of each stain were suspended in 150 μL PBS (pH 7.4) and injected by retro-orbital vein infusion.
To evaluate the minimum number of cells needed for a reproducible response, each mouse (n=4) received a range of cell doses (10,000, 50,000, 100,000, or 500,000) each of cells stained with Dil or DiD with a dye switch (i.e., dyes used for experimental and control cells were alternated to prevent bias based on the dyes that were used). To evaluate the impact of small molecule hit pre-treatment on MSC homing to the inflamed ear, MSCs were incubated with 3 μM of the small molecule hit or 0.1% DMSO as a control for 24 h before staining and in vivo administration. To highlight the vasculature, 50 μL of 10 mg/mL FITC-dextran ([…]; Sigma, St. Louis, Mo.) was injected retro-orbitally prior to imaging.
In vitro staining and in vivo homing of stained MSCs to the skin was imaged noninvasively in real time using a custom-built video-rate laser-scanning confocal microscope designed specifically for live animal imaging. For in vivo imaging, the mouse ear was positioned under a coverslip with methylcellulose gel and images acquired at 30 frames per second at a depth up to 200 μm using a 60×1.0NA water immersion objective lens (Olympus, Center Valley, Pa.). DiO labeled MSCs were excited with a 491 nm continuous wave (CW) laser (Cobalt, Stockholm, Sweden), and detected through a 520±20 nm bandpass filter (Semrock, Inc., Rochester, N.Y.). Dil labeled MSCs were excited with a 561 nm CW laser (Coherent, Inc., Santa Clara, Calif.) and detected through a 593 nm±40 nm filter (Omega Optical, Brattleboro, Vt.). DiD labeled MSCs were excited with a 635 nm CW laser (Coherent, Inc., Santa Clara, Calif.) and detected through a 695 nm±27.5 nm band pass filter (Omega Optical, Brattleboro, Vt.). DiR labeled MSCs were excited using a femtosecond Ti:Sapphire Maitai source for single photon excitation at 750 nm (Spectra Physics, Santa Clara, Calif.) and collected through a 785 nm±31 nm band pass filter (Omega Optical, Brattleboro, Vt.).
For quantification, the average number of cells in 20 representative imaging locations across the inflamed region was counted in each mouse. Cells were defined as having a diameter from 10-30 μm to eliminate debris and clumps from analysis, and a primary channel intensity greater than 2 to eliminate autofluorescent events. The average relative detection sensitivity (ratio of Dil/DiD counts) determined in the overall dye efficiency experiments were used to scale the counts for DiD stained cells. […] For multiple comparisons, Tukey's HSD test was used. Error bars in graphs represent standard error, and statistical significance is denoted by * p<0.05.

[4] = system: CD11a surface expression on MSCs; assay: Flow cytometry of CD11a surface expression on MSCs (FITC-CD11a Ab); format: cell-based, human; details: 3 μM for 24 h
Protocol: MSCs were pretreated with DMSO vehicle control (DMSO-MSC, 0.1%) or ruboxistaurin (Rub-MSC, 3 μM) for 24 h and CD11a expression levels were assessed via flow cytometry (cells were stained with either FITC-CD11a Ab or isotype control, representative data from n=3 independent experiments).

[5] = system: MSC firm adhesion to ICAM-1-coated surface; assay: ICAM-1 firm adhesion assay under shear flow, with antibody blocking; format: cell-based, human; details: 3 μM for 24 h
Protocol: as §1
Pre-confluent MSCs were incubated for 24 hours with the indicated small molecules (3 μM). MSCs were than detached, washed and incubated for 30 minutes with an antibody reagent. The following antibodies are used: anti-human CD11a (clone: HI111), anti-human CD90 (clone: MAB2067), mouse anti-human CD11a (clone: TS1/22), and mouse IgG1 isotype control. Cells were then introduced into the channel and given 2 minutes to adhere before being subjected to increasing shear flow for a firm adhesion assay on a microfluidic channel coated with E-selectin or ICAM-1.

CN1C(=O)C(c2c[nH]c3ccccc23)=C(c2cn(C)c3ccccc23)C1=O [Compound 1905, 3-(1H-indol-3-yl)-1-methyl-4-(1-methyl-1H-indol-3-yl)-pyrrole-2,5-dione]
EC50 ([1]; Homo sapiens): 1.68e-05 M

Cn1cc(C2=C(c3cn(C4CCN(Cc5ccccn5)CC4)c4ccccc34)C(=O)NC2=O)c2ccccc21 [Compound 1906, 3-(1-methyl-1H-indol-3-yl)-4-[1-(1-pyridin-2-ylmethyl-piperidin-4-yl)-1H-indol-3-yl]-pyrrole-2,5-dione, reference compound]
EC50 ([1]; Homo sapiens): 3.19e-06 M

Cn1cc(C2=C(c3cn(C)c4ccccc34)C(=O)NC2=O)c2ccccc21 [Compound 1912, 3,4-bis-(1-methyl-1H-indol-3-yl)-pyrrole-2,5-dione]
Cell surface ligand CD11a (induction of expression) [1]: A

Cn1cc(C2=C(c3c4n(c5ccccc35)CCC(CN)C4)C(=O)NC2=O)c2ccccc21 (stereo not shown) [Compound 1919, 3-(8-aminomethyl-6,7,8,9-tetrahydro-pyrido[1,2-a]indol-10-yl)-4-(1-methyl-1H-indol-3-yl)-pyrrole-2,5-dione]
Result, in vitro Firm Adhesion [2]: A | Firm adhesion, Percent increase [2]: 81% | Increase of MSC homing to inflamed ear (%) [3]: 45% | In vivo functional assay (homing) ([3]; systemic administration of pretreated huMSCs): A | Cell surface ligand CD11a (induction of expression) [1]: A | EC50 [1]: 2.75e-06 M

O=C1C(c2c[nH]c3ccccc23)=C(c2c[nH]c3ccccc23)C(=O)N1Cc1ccccc1 [Compound 1921, 1-benzyl-3,4-bis-(1H-indol-3-yl)-pyrrole-2,5-dione]
EC50 ([1]; Homo sapiens): 1.75e-05 M | Cell surface ligand CD11a (induction of expression) [1]: A

CN1CCCC1CCn1cc(C2=C(c3c[nH]c4ccccc34)C(=O)NC2=O)c2ccccc21 (stereo not shown) [Compound 1928, 3-(1H-indol-3-yl)-4-{1-[2-(1-methyl-pyrrolidin-2-yl)-ethyl]-1H-indol-3-yl}-pyrrole-2,5-dione]
Cell surface ligand CD11a (induction of expression) [1]: A

CN(C)CC1CCn2c(c(C3=C(c4cn(C)c5ccccc45)C(=O)NC3=O)c3ccccc32)C1 (stereo not shown) [Compound 1933, 3-(8-dimethylaminomethyl-6,7,8,9-tetrahydro-pyrido[1,2-a]indol-10-yl)-4-(1-methyl-1H-indol-3-yl)-pyrrole-2,5-dione hydrochloride]
Result, in vitro Firm Adhesion [2]: A | Firm adhesion, Percent increase [2]: 75% | Increase of MSC homing to inflamed ear (%) [3]: <10% | EC50 ([1]; Homo sapiens): 2.49e-05 M | Cell surface ligand CD11a (induction of expression) [1]: A

CN(C)CCCn1cc(C2=C(c3c[nH]c4ccccc34)C(=O)NC2=O)c2ccccc21 [Compound 1934, 3-[1-(3-dimethylamino-propyl)-1H-indol-3-yl]-4-(1H-indol-3-yl)-pyrrole-2,5-dione]
Cell surface ligand CD11a (induction of expression) [1]: A

CN(C)C[C@@H]1CCn2cc(c3ccccc32)C2=C(C(=O)NC2=O)c2cn(c3ccccc23)CCO1 [Ruboxistaurin, ruboxistaurin, reference compound]
Firm adhesion, Percent increase [2]: 0% (negative response) | CD11a surface expression on MSCs [4]: did not increase; also recorded: does not upregulate | EC50 ([1]; Homo sapiens): > 3e-05 M | MSC firm adhesion to ICAM-1-coated substrates, result in words [5]: did not improve
